Laboratory results: ChEMBL document CHEMBL1133195, “Structure-activity relationships study at the 3'-N position of paclitaxel. Part 2: synthesis and biological evaluation of 3'-N-thiourea- and 3'-N-thiocarbamate-bearing paclitaxel analogues” (Bioorg Med Chem Lett, 2000)

Key:
Mus musculus [1] = experiment: In vivo anticancer activity against murine M 109 lung carcinoma after intraperitoneal administration at a 40 mg/kg/inj concentration; type: functional
[2] = Ratio fo the (IC50-R) compound relative to (IC50-S) paclitaxel sensitive HCT116 human colon cancer cell line; type: functional, HCT-116
[3] = Ratio relative to paclitaxel (EC0.01) was evaluated in a tubulin polymerization assay; type: functional
[4] = Cytotoxicity ratio was determined by IC50 to that of IC50 of paclitaxel; type: functional
HCT-116 = experiment: In vitro cytotoxicity against human colon cancer cell lines (HCT116); type: functional, cell-based
Mus musculus [5] = experiment: In vivo anticancer activity against murine M 109 lung carcinoma after intraperitoneal administration at a 60 mg/kg/inj concentration; Range 145-218; type: functional
Mus musculus [6] = experiment: In vivo anticancer activity against murine M 109 lung carcinoma after intraperitoneal administration at a 1.25 mg/kg/inj concentration; type: functional
Mus musculus [7] = experiment: In vivo anticancer activity against murine M 109 lung carcinoma after intraperitoneal administration at a 32 mg/kg/inj concentration; type: functional
Mus musculus [8] = experiment: In vivo anticancer activity against murine M 109 lung carcinoma after intraperitoneal administration at a 50 mg/kg/inj concentration; type: functional

SMILES	T/C (Mus musculus [1])	Ratio [2]	Ratio [3]	Ratio [4]	IC50 (HCT-116)	T/C (Mus musculus [5])	T/C (Mus musculus [6])	T/C (Mus musculus [7])	T/C (Mus musculus [8])
CCCCSC(=O)N[C@@H](c1ccco1)[C@@H](O)C(=O)O[C@H]1CC2(O)[C@@H](OC(=O)c3ccccc3)[C@H]3[C@](C)(C(=O)[C@H](OC(C)=O)C(=C1C)C2(C)C)[C@@H](O)CC1OC[C@]13OC(C)=O (stereo partly specified)	139	21.3	0.2	0.17	0.3 nM	–	–	–	–
CCCC/N=C(\S)N[C@@H](c1ccco1)[C@@H](O)C(=O)O[C@H]1CC2(O)[C@@H](OC(=O)c3ccccc3)[C@H]3[C@](C)(C(=O)[C@H](OC(C)=O)C(=C1C)C2(C)C)[C@@H](O)CC1OC[C@]13OC(C)=O (stereo partly specified)	–	252	1	4.6	10.5 nM	–	–	–	–
CC(=O)O[C@@]12COC1C[C@H](O)[C@@]1(C)C(=O)[C@H](O)C3=C(C)[C@@H](OC(=O)C(O)[C@@H](NC(=O)NC(C)(C)C)c4ccccc4)CC(O)([C@@H](OC(=O)c4ccccc4)[C@@H]12)C3(C)C (stereo partly specified)	–	46.8	0.72	1	4 nM	–	–	–	–
CC(=O)O[C@H]1C(=O)[C@@]2(C)[C@H]([C@H](OC(=O)c3ccccc3)[C@]3(O)C[C@H](OC(=O)[C@H](O)[C@@H](NC(=O)c4ccccc4)c4ccccc4)C(C)=C1C3(C)C)[C@]1(OC(C)=O)CO[C@@H]1C[C@@H]2O [PACLITAXEL]	–	–	–	–	–	145	–	–	–
CCCC/N=C(\S)N[C@@H](c1ccccc1)[C@@H](O)C(=O)O[C@H]1CC2(O)[C@@H](OC(=O)c3ccccc3)[C@H]3[C@](C)(C(=O)[C@H](OC(C)=O)C(=C1C)C2(C)C)[C@@H](O)CC1OC[C@]13OC(C)=O (stereo partly specified)	–	64	18	21.8	50.2 nM	–	–	–	–
CC(=O)O[C@H]1C(=O)[C@]2(C)[C@@H](O)CC3OC[C@@]3(OC(C)=O)[C@H]2[C@H](OC(=O)c2ccccc2)C2(O)C[C@H](OC(=O)[C@H](O)[C@@H](NC(=O)SC(C)(C)C)c3ccccc3)C(C)=C1C2(C)C (stereo partly specified)	–	4.7	0.3	0.3	0.9 nM	–	–	–	–
CC(=O)O[C@H]1C(=O)[C@]2(C)[C@@H](O)CC3OC[C@@]3(OC(C)=O)[C@H]2[C@H](OC(=O)c2ccccc2)C2(O)C[C@H](OC(=O)[C@H](O)[C@@H](NC(=O)SC(C)(C)C)c3ccco3)C(C)=C1C2(C)C (stereo partly specified)	–	2.2	0.1	0.3	0.9 nM	–	134	–	–
CC(=O)O[C@H]1C(=O)[C@]2(C)[C@@H](O)CC3OC[C@@]3(OC(C)=O)[C@H]2[C@H](OC(=O)c2ccccc2)C2(O)C[C@H](OC(=O)[C@H](O)[C@@H](/N=C(\S)NC(C)(C)C)c3ccco3)C(C)=C1C2(C)C (stereo partly specified)	–	40	1	4.9	11.3 nM	–	–	–	–
CC(=O)O[C@H]1C(=O)[C@]2(C)[C@@H](O)CC3OC[C@@]3(OC(C)=O)[C@H]2[C@H](OC(=O)c2ccccc2)C2(O)C[C@H](OC(=O)[C@H](O)[C@@H](/N=C(\S)NCc3ccccc3)c3ccccc3)C(C)=C1C2(C)C (stereo partly specified)	–	–	12	>40	> 87 nM	–	–	–	–
CC(=O)O[C@H]1C(=O)[C@]2(C)[C@@H](O)CC3OC[C@@]3(OC(C)=O)[C@H]2[C@H](OC(=O)c2ccccc2)C2(O)C[C@H](OC(=O)[C@H](O)[C@@H](/N=C(\S)NC(C)(C)C)c3ccccc3)C(C)=C1C2(C)C (stereo partly specified)	–	31	19	~50	96.7 nM	–	–	–	–
CC(=O)O[C@H]1C(=O)[C@]2(C)[C@@H](O)CC3OC[C@@]3(OC(C)=O)[C@H]2[C@H](OC(=O)c2ccccc2)C2(O)C[C@H](OC(=O)[C@H](O)[C@@H](NC(=O)OC(C)(C)C)c3ccccc3)C(C)=C1C2(C)C (stereo partly specified)	–	12	0.66	0.6	2.4 nM	–	–	177	–
CCCCSC(=O)N[C@@H](c1ccccc1)[C@@H](O)C(=O)O[C@H]1CC2(O)[C@@H](OC(=O)c3ccccc3)[C@H]3[C@](C)(C(=O)[C@H](OC(C)=O)C(=C1C)C2(C)C)[C@@H](O)CC1OC[C@]13OC(C)=O (stereo partly specified)	–	29	0.6	0.88	5.8 nM	–	–	–	–
CC(=O)O[C@H]1C(=O)[C@]2(C)[C@@H](O)CC3OC[C@@]3(OC(C)=O)[C@H]2[C@H](OC(=O)c2ccccc2)C2(O)C[C@H](OC(=O)[C@H](O)[C@@H](NC(=O)SC(C)C)c3ccco3)C(C)=C1C2(C)C (stereo partly specified)	–	1.2	0.2	14.7	32.5 nM	–	–	–	–
CC(=O)O[C@H]1C(=O)[C@]2(C)[C@@H](O)CC3OC[C@@]3(OC(C)=O)[C@H]2[C@H](OC(=O)c2ccccc2)C2(O)C[C@H](OC(=O)[C@H](O)[C@@H](NC(=O)SCC(C)C)c3ccco3)C(C)=C1C2(C)C (stereo partly specified)	–	7.7	0.2	0.28	0.7 nM	–	–	–	145
